Measurements taken from patent US20080312200A1, “Medicament Comprising A Hormone Combination” (Grunenthal GmbH, priority 2006, published 2008).

Key:
GABAA receptors = test: Influence on the binding of [3H]muscimol to GABAA receptors (rat cerebral cortex membranes); conditions: 5 nM [3H]muscimol
Description: The following determinations of the influence of allopregnanolone, 3-α-OH-CMA or 3-β-OH-CMA on the binding of muscimol to GABAA receptors (rat) are based on the experimental methods published by Snodgrass, S. R. (Nature, 1979, vol. 273, p. 392-394). The corresponding disclosure is hereby introduced as a reference and is part of the disclosure of the present application.
Membrane preparations are produced from rat cerebral cortex material. The reference substance used is 5 nM of [^3H] muscimol; 10 μM of muscimol are used for determining nonspecific binding. The incubation period of the substances ([^3H]muscimol, allopregnanolone) on the receptor amounts in each case to 10 minutes at a temperature of approx. 4° C. The stock solution (5×10^−2 M) of allopregnanolone is in each case prediluted 1:10 in 75% strength DMSO and then further diluted 1:5 in 25% strength DMSO. The final concentration of allopregnanolone in the test is in each case 1×10^−10 M, 1×10^−9 M, 1×10^−8 M, 1×10^−7 M, 1×10^−6 M and 1×10^−5 M. After the above-stated incubation period of the substances, the incubation batches are filtered using standard methods and washed and the radioactivity of the filters is determined with a scintillation counter. Such standard methods are known to a person skilled in the art. The experiments are in each case carried out on duplicate batches.
The influence of 3-α-OH-CMA or 3-β-OH-CMA on the binding of muscimol to GABAA receptors (rat) is determined in a manner similar to the above-described method. 3-α-OH-CMA or 3-β-OH-CMA is used instead of allopregnanolone.

human androgen receptor = molecular target: T1, human androgen receptor (Homo sapiens, UniProt P10275, T878A); test: Affinity for the human androgen receptor ([3H]methyltrienolone displacement, LNCaP cytosol); assay type: binding
T1 construct: The cytosolic fractions of LNCaP cells, which contain the human androgen receptor, are used; endogenous in cells; host or cells: LNCaP cells (cytosolic fraction)
T1 sequence (P10275 1-920 T878A): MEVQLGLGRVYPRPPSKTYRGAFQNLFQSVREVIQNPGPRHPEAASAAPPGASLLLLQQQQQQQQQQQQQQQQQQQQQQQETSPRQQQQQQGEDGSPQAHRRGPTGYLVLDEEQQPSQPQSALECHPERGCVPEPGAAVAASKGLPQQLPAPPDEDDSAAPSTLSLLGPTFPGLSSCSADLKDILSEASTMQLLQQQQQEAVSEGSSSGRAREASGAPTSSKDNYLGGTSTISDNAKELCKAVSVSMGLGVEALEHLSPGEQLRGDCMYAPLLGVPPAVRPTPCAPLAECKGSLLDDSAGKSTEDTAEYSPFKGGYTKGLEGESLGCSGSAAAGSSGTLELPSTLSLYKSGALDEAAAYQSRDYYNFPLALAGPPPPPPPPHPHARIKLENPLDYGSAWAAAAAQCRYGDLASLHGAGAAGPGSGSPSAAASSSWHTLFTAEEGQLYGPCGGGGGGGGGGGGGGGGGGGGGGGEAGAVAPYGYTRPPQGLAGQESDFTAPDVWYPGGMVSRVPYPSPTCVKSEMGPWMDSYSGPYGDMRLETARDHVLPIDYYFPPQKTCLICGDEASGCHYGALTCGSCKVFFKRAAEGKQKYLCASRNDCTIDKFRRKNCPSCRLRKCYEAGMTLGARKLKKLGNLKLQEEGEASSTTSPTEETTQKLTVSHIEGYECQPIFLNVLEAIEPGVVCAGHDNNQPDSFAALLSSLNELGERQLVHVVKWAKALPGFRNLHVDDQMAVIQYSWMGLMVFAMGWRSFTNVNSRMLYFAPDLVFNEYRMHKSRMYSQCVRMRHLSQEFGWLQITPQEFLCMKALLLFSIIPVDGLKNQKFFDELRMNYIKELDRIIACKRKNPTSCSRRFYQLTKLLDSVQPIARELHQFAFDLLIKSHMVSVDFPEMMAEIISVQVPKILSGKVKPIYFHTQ
Description: (§1) The following determination of the affinity of 3-α-OH-CMA or 3-β-OH-CMA for the human androgen receptor is based on the experimental methods published by Zava et al. (Endocrinology, 1979, vol. 104, pp. 1007-1012). The corresponding disclosure is hereby introduced as a reference and is part of the disclosure of the present application.
The cytosolic fractions of LNCaP cells, which contain the human androgen receptor, are used. The reference substance used is 0.5 nM of [^3H]methyltrienolone; 1 μM of mibolerone is used for determining nonspecific binding. The incubation period of the substances ([^3H]methyltrienolone, 3-α-OH-CMA or 3-β-OH-CMA) on the receptor amounts in each case to 24 hours at a temperature of approx. 4° C. The stock solutions, the dilution series of 3-α-OH-CMA or 3-β-OH-CMA, the washing steps, the determination of radioactivity, and the methods for calculating the particular IC50 and Ki values match the experimental protocol described in point 2).

[1] = molecular target: T2, human progesterone receptor (Homo sapiens, UniProt P06401); test: Affinity for the human progesterone receptor ([3H]R 5020 displacement, MCF-7 cytosol); assay type: binding; conditions: for IC50: 2 nM [3H]R 5020, MCF-7 cytosol, 20 hours, approx. 4° C.; for Ki: Cheng-Prusoff from IC50
T2 construct: The cytosolic fractions of MCF-7 cells, which contain the human progesterone receptor, are used; endogenous in cells; host or cells: MCF-7 cells (cytosolic fraction)
T2 sequence (P06401 1-933): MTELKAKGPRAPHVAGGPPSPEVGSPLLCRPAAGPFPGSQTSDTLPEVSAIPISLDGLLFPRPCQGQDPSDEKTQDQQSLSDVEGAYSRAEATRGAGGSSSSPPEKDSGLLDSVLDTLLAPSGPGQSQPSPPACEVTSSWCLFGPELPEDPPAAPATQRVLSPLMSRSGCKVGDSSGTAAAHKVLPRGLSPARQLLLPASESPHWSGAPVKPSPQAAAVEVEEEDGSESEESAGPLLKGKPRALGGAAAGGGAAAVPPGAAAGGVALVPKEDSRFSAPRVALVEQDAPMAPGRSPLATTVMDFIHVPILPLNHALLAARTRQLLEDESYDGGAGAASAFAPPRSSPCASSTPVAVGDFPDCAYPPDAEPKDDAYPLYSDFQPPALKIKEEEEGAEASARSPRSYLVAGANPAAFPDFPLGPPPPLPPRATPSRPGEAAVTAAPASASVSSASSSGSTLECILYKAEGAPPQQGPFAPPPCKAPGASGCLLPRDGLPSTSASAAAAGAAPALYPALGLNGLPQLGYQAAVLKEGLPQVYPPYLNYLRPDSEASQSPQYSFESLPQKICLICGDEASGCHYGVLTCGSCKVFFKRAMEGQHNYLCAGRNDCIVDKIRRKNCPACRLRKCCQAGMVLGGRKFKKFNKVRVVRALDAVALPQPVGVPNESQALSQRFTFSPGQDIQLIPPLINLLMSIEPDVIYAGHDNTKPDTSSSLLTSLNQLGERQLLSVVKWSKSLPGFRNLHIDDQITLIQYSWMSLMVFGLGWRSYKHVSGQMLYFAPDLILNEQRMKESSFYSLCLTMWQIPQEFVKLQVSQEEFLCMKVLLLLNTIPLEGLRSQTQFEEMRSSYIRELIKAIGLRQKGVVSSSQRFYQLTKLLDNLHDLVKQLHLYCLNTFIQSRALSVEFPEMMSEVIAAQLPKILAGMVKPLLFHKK
Description: as §1, with “progesterone” for “androgen”, “Eckert” for “Zava”, “(Cancer Research, 1982,” for “(Endocrinology, 1979,”, “42,” for “104,”, “139-144).” for “1007-1012).”
The cytosolic fractions of MCF-7 cells, which contain the human progesterone receptor, are used. The reference substance used is 2 nM of [^3H] R 5020; 1 μM of R 5020 is used for determining nonspecific binding. The incubation period of the substances ([^3H] R 5020, 3-α-OH-CMA or 3-β-OH-CMA) on the receptor amounts in each case to 20 hours at a temperature of approx. 4° C. Stock solutions (5×10^−2 M) of 3-α-OH-CMA or 3-β-OH-CMA are in each case prediluted 1:10 in 75% strength DMSO and then further diluted 1:5 in 25% strength DMSO. The final concentrations of 3-α-OH-CMA or 3-β-OH-CMA in the test are 3×10^−10 M, 3×10^−9 M, 1×10^−8 M, 3×10^−8 M, 1×10^−7 M, 3×10^−7 M, 1×10^−6 M and 1×10^−5 M. After the above-stated incubation period of the substances, the incubation batches are filtered using standard methods and washed and the radioactivity of the filters is determined with a scintillation counter. Such standard methods are known to a person skilled in the art. The experiments are in each case carried out on duplicate batches.
The corresponding IC50 values are calculated by nonlinear regression analysis of the displacement curves using the Hill curve fitting formula. A person skilled in the art is aware of such a calculation procedure.
The corresponding Ki values (inhibition constants) are determined using the Cheng-Prusoff equation (Ki=IC50/(1+(L/KD)), where L denotes the concentration of the radioligand in the test and KD the affinity of the radioligand for the receptor).

CC(=O)O[C@]1(C(C)=O)CC[C@H]2[C@@H]3C=C(Cl)C4=C[C@H](O)CC[C@]4(C)[C@H]3CC[C@@]21C [3-α-OH-CMA, 3α-hydroxy-6-chloro-17α-acetoxy-4,6-pregnadien-20-one]
increase of binding of radioactively labelled muscimol (GABAA receptors; 0.001 μM test substance): 12%
IC50 (human androgen receptor): 100 nM
Ki (human androgen receptor): 83 nM
IC50 [1]: 39 nM
Ki [1]: 13 nM

CC(=O)O[C@]1(C(C)=O)CC[C@H]2[C@@H]3C=C(Cl)C4=C[C@@H](O)CC[C@]4(C)[C@H]3CC[C@@]21C [3-β-OH-CMA, 3β-hydroxy-6-chloro-17α-acetoxy-4,6-pregnadien-20-one]
increase of binding of radioactively labelled muscimol (GABAA receptors; 0.1 μM test substance): 31%
IC50 (human androgen receptor): 25 nM
Ki (human androgen receptor): 20 nM
IC50 [1]: 18 nM
Ki [1]: 6 nM

CC(=O)[C@H]1CC[C@H]2[C@@H]3CC[C@H]4C[C@H](O)CC[C@]4(C)[C@H]3CC[C@]12C [allopregnanolone, reference compound]
increase of binding of radioactively labelled muscimol (GABAA receptors; 1 μM test substance, 10 min, approx. 4° C.): 38%
